Data on four compounds can be found in ChEMBL document CHEMBL1158753, “Ammodendrine and N-methylammodendrine enantiomers: isolation, optical rotation, and toxicity” (J Nat Prod, 2005).

This data set is described as follows: […] against iv dosed Swiss-Webster mouse. Format: organism-based. The following applies: in vivo.
Take `CC(=O)N1C=C([C@@H]2CCCCN2)CCC1`: the LD50 came to 115 mg/kg.

Take `CC(=O)N1C=C([C@H]2CCCCN2C)CCC1`: the LD50 was determined as 56.3 mg/kg.

The compound `CC(=O)N1C=C([C@H]2CCCCN2)CCC1` had a median lethal dose (LD50) of 94.1 mg/kg.

For the compound `CC(=O)N1C=C([C@@H]2CCCCN2C)CCC1`, the median lethal dose (LD50) was determined as 63.4 mg/kg.
